Source: patent US3952017A, “Tricyclic compounds” (Hoffmann-La Roche Inc., priority 1968, dated 1976)
Counter-ions that a name gives are not always drawn. Like-named read-outs stand apart in the source and are kept apart here.

What was measured:
rats = test: antidepressive action: suppression of ptosis, seeking behavior, motility and sensitivity to stimulus in rats given 2-hydroxy-2-ethyl-3-isobutyl-9,10-dimethoxy-1,2,3,4,6,7-hexahydro-11bH-benzo[a,d]quinolizine hydrochloride; type: in vivo; conditions: 3 x 50 mg/kg p.o.; for Activity in % compared to Amitriptyline: Amitriptyline 100%
Procedure: The same dosage was administered to a control group of 5 non-pretreated rats. The ratings include central and peripheral symptoms, which are characteristic for tricyclic antidepressants [cf. Ann. N.Y. Acad. Sci. 96, 279 (1962)]. […] These changes were recorded according to a rating scheme which utilized numbers. […] The stated percentages are compared with the values for Amitriptyline* (Amitriptyline 100%).

salivation in rabbits = test: anticholinergic action: inhibition of pilocarpine-increased salivation in rabbits under light urethane narcosis; type: in vivo; conditions: for inhibition at 3 mg/kg: Oryctolagus cuniculus, 3 mg/kg i.v., pilocarpine 5 mg/kg s.c.
Procedure: The low anticholinergic action can be shown by the lack of salivation inhibition in rabbits: The salivation in rabbits under light urethane narcosis was increased by pilocarpine injection (5 mg/kg. s.c.) and the amount of saliva was measured at 5-minute intervals. The inhibition of salivation is expressed as a percentage based upon the salivation of animals which only received pilocarpine.

mice = test: acute toxicity in mice (24-hour values); conditions: mouse, in vivo
Source text: (§1) The low toxicity of the compounds of the invention can be illustrated by the acute toxicity of 1-methyl-10,11-dihydro-5-(3-dimethylaminopropyl)-5H-dibenzo[a,d]cycloheptene hydrochloride in mice (24-hour values): […]

[1] = acute toxicity in mice (24-hour values); conditions: mouse, in vivo, mice, 24-hour values
Source text: as §1

| Compound | Activity in % compared to Amitriptyline (rats) | inhibition at 3 mg/kg (salivation in rabbits) | further results |
| --- | --- | --- | --- |
| CNCCCC1c2ccccc2CCc2c(C)cccc21.Cl (stereo not shown) [1-Methyl-10,11-dihydro-5-(3-methylaminopropyl)-5H-dibenzo[a,d]cycloheptene hydrochloride] | 180% | 40% |  |
| Cc1cccc2c1C=Cc1ccccc1C2=CCC[N+](C)(C)[O-] [1-methyl-5-(3-dimethylaminopropylidene)-5H-dibenzo[a,d]cycloheptene N-oxide hydrochloride] | 140% | 14% |  |
| Cc1cccc2c1C=Cc1ccccc1C2=CCC[N+](C)(C)[O-] [1-methyl-5-(3-dimethylaminopropylidene)-5H-dibenzo[a,d]cycloheptene N-oxide] |  |  | toxicity (in words) (mice): reduced toxicity; antidepressive action (in words) (rats): excellent antidepressive action; antidepressive action (in words) (rats; listed as 1-methyl-5-(3-dimethylaminopropylidene)-5-H-dibenzo[a,d]cyclohehptene N-oxide): considerably increased antidepressive action; salivation inhibition / anticholinergic action (in words) (salivation in rabbits): absence of substantial anticholinergic action |
| Cc1cccc2c1C=Cc1ccccc1C2=CCCN(C)C.Cl [1-methyl-5-(3-dimethylaminopropylidene)-5H-dibenzo[a,d]cycloheptene hydrochloride] | 130% | 60% |  |
| CNCCC=C1c2ccccc2C=Cc2c(C)cccc21.Cl [1-methyl-5-(3-methylaminopropylidene)-5H-dibenzo[a,d]cycloheptene hydrochloride] | 230% | 60% |  |
| Cc1cccc2c1CCc1ccccc1C2CCCN(C)C.Cl (stereo not shown) [1-methyl-10,11-dihydro-5-(3-dimethylaminopropyl)-5H-dibenzo[a,d]cycloheptene hydrochloride] | 180% | 50% | LD50 at 24 h ([1]; iv, i.v., read-out: LD50 i.v.): 25 to 50 mg/kg; LD50 at 24 h ([1]; po, p.o., read-out: LD50 p.o.): 300 to 600 mg/kg |
| Cc1cccc2c1CCc1ccccc1C2=CCCN(C)C.Cl [1-methyl-10,11-dihydro-5-(3-dimethylaminopropylidene)-5H-dibenzo[a,d]cycloheptene hydrochloride] | 220% | 50% |  |
| CNCCC=C1c2ccccc2CCc2c(C)cccc21.Cl [1-methyl-10,11-dihydro-5-(3-methylaminopropylidene)-5H-dibenzo[a,d]cycloheptene hydrochloride] | 140% | 50% |  |
| CN(C)CCC=C1c2ccccc2CCc2ccccc21 [Amitriptyline, 5-(3-dimethylaminopropylidene)-dibenzo[a,d][1,4] cycloheptadiene, reference compound] | 100% | 96% |  |
